Counter-ions that a name gives are not always drawn. A value given as a limit tells only on which side of the number the result lay.

Chain of Glycogen synthase kinase-3 beta (P49841 whole entry): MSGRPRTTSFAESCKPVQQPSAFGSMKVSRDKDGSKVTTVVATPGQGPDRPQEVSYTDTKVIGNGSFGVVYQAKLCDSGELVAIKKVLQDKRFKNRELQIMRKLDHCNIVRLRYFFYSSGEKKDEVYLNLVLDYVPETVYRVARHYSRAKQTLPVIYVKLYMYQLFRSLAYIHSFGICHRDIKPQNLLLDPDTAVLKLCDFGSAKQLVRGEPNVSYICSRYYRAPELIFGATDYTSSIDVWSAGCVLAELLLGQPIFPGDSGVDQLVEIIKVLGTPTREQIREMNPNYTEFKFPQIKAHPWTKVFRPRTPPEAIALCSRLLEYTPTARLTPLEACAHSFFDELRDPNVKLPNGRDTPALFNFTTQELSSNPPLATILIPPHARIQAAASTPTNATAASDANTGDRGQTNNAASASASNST

The experiment addresses Glycogen synthase kinase-3 beta (Homo sapiens, UniProt P49841). The experiment is described as follows: concentration-response blocking of human GSK3B – biochemical, luminescence, cell-free homogeneous, retest, dose response (AID 434954).
For the compound `Cc1ccnc(NC(=O)C(C)n2cc([N+](=O)[O-])cn2)c1` (stereo not given), the EC50 (usually the midpoint of the concentration-response curve) was determined as 7.19 µM. The result for `CCOc1cc(C2c3c(C)n[nH]c3C(=O)N2c2ccc(C)cc2)ccc1O` (stereo not given) [SMR000035605] reads over 300 µM.

With `CC1(C)CC(=O)C=C(Nc2ccc(F)cc2)C1` [MLS000070279], the EC50 was over 300 µM. The result for `Cn1c(SCC(=O)Nc2ccc(Cl)cn2)nnc1C1CC1` [N-(5-chloro-2-pyridinyl)-2-[(5-cyclopropyl-4-methyl-1,2,4-triazol-3-yl)thio]acetamide] reads 23.7 µM; that for `CCOC(=O)c1ccc(/N=c2\sc(C(=O)OC)cc(=O)n2Cc2ccco2)cc1` [methyl 2-(4-ethoxycarbonylphenyl)imino-3-(furan-2-ylmethyl)-4-oxidanylidene-1,3-thiazine-6-carboxylate], over 300 µM. In the case of `Cc1cccc(/C=C2/Sc3ccc(C(=O)NCCN4CCCC4)cc3NC2=O)c1` [(2E)-2-[(3-methylphenyl)methylidene]-3-oxidanylidene-N-(2-pyrrolidin-1-ylethyl)-4H-1,4-benzothiazine-6-carboxamide], the EC50 worked out at 6.28 µM. The result for `COc1ccc(C2CC(=O)C3C(=Nc4ncnn4C3c3ccccc3C)C2)cc1` (stereo not given) reads over 300 µM. For `Cc1ccc(NC(=O)CSc2nccn2C)cc1F` [N-(3-fluoro-4-methylphenyl)-2-[(1-methyl-2-imidazolyl)thio]acetamide], the EC50 was over 300 µM.

The compound `O=C(NCCCN1CCCC1=O)c1ccc2c(c1)NC(=O)c1ccccc1S2` [MLS000522698] came in with an EC50 of over 300 µM. Turning to `CCC(O)CNc1nc(SC)nc2sc3c(c12)CCN(C)C3` (stereo not given), the EC50 stood at 1.75 µM. On to `Cc1ccc(C(=O)c2coc3ccc(OCC(=O)O)cc23)cc1` [2-[[3-[(4-methylphenyl)-oxomethyl]-5-benzofuranyl]oxy]acetic acid], for which the EC50 was found to be 3.66 µM. The result for `Cn1nnc2sc3c(c2c1=O)CCCC3` [MLS000557299] reads 23.3 µM; that for `COc1ccc(-n2sc3c(c2=S)-c2cc(OC)ccc2NC3(C)C)cc1`, over 300 µM. In the case of `O=C(CCc1ccccc1)Nc1ccc2c(c1)OCCO2` [N-(2,3-dihydro-1,4-benzodioxin-6-yl)-3-phenyl-propanamide] it was over 300 µM; in that of `CCCN(C(=O)CCNC(=O)Cn1cnc2ccccc2c1=O)c1cccc(Cl)c1` [N-(3-chlorophenyl)-3-[[2-(4-oxoquinazolin-3-yl)acetyl]amino]-N-propylpropanamide], over 300 µM; in that of `CC1=C(C(=O)N2CCCCC2)C(c2cccs2)C2C(=O)CCCC2=N1` (stereo not given) [2-methyl-3-piperidin-1-ylcarbonyl-4-thiophen-2-yl-4,6,7,8-tetrahydro-1H-quinolin-5-one], over 300 µM. Compound `O=C(Nc1ccccc1)Nc1ccccn1` [1-phenyl-3-pyridin-2-ylurea] displayed an EC50 of over 300 µM.

`CN(C)CCCNc1nc(N)c([N+](=O)[O-])c(NCc2ccccc2)n1` [MLS001165050]: the EC50 amounted to 38 µM. In the case of `CN(CC(=O)OCC(=O)Nc1ccccc1)S(=O)(=O)c1ccc(Cl)cc1` [(2-anilino-2-oxoethyl) 2-[(4-chlorophenyl)sulfonyl-methylamino]acetate] it was over 300 µM; in that of `Nc1ncc([N+](=O)[O-])c(N2CCCCCC2)n1` [MLS001174873], 18.4 µM. With `Nc1nc(Nc2ccccc2)nc(N2CCOCC2)c1[N+](=O)[O-]` [SMR000219795], the EC50 came to 20.3 µM. `CCSc1nnc(-c2cccs2)o1` [2-ethylsulfanyl-5-thiophen-2-yl-1,3,4-oxadiazole]: the EC50 is over 300 µM.

`CC(C)=CCc1c(O)cc2c(=O)c3ccc(O)cc3oc2c1O` [SMR000470963] had an EC50 of over 300 µM. Turning to `CSc1nsc(CC=Nc2ccc(Cl)cc2)c1C#N` [MLS000539457], the EC50 was over 300 µM. In the case of `Cc1ccc(N2CCN(C(=O)N3CCOCC3)CC2)c(C)c1` [[4-(2,4-dimethylphenyl)piperazin-1-yl]-morpholin-4-ylmethanone] it was over 300 µM.

For `Cc1ccc2nc3c(cc2c1)c(NC(=O)C1CCCO1)nn3CC(C)C` (stereo not given) [SMR000148636], the EC50 was over 300 µM. In the case of `CCOC(=O)C1C(C)=Nc2ncnn2C1/C=C/c1ccccc1` (stereo not given) [MLS000089169] it was over 300 µM; in that of `N#Cc1ccccc1NC(=O)CSc1nnc(-c2ccncc2)o1`, over 300 µM.

On to `CCOC(=O)c1c(-c2ccc(C)o2)csc1N`, for which the EC50 is over 300 µM.

`CCOc1ccc2c(c1)-c1c(ssc1=S)C(C)(C)N2C` [MLS000529181] showed an EC50 of over 300 µM. The result for `CCN(CC)Cc1c(O)ccc2c1O/C(=C\C=C\c1ccccc1)C2=O` [MLS000779120] reads over 300 µM; that for `COc1ccc2nc(C)cc(N3CCN(c4ccccc4)CC3)c2c1` [SMR000595708], 29.5 µM. In the case of `N#Cc1c(-c2ccccc2)nc(SCC(=O)N(c2ccccc2)c2ccccc2)[nH]c1=O` [2-[(5-cyano-6-oxo-4-phenyl-1,6-dihydro-2-pyrimidinyl)thio]-N,N-diphenylacetamide] it was over 300 µM. In the case of `CCCCCCN1C(=O)NC(=O)C(=CNCCCn2ccnc2)C1=O` [(5E)-1-hexyl-5-[[3-(1-imidazolyl)propylamino]methylidene]-1,3-diazinane-2,4,6-trione], the EC50 turned out to be 14.3 µM. In the case of `COC(=O)c1nnn(-c2nonc2N)c1CSc1nnc(N)s1` [1-(4-amino-1,2,5-oxadiazol-3-yl)-5-[[(5-amino-1,3,4-thiadiazol-2-yl)thio]methyl]-4-triazolecarboxylic acid methyl ester] it was 40 µM. On to `CCOc1ccc2c(c1)-c1c(ssc1=S)C(C)(C)N2` [SMR000116364], for which the EC50 was over 300 µM. Compound `COCCn1c(SCC(=O)NCc2ccccc2)nc2ccccc21` [MLS001171409] registered an EC50 of over 300 µM.

With `Nn1c(-c2cccs2)nc2sc3c(c2c1=O)CCCC3` [3-azanyl-2-thiophen-2-yl-5,6,7,8-tetrahydro-[1]benzothiolo[2,3-d]pyrimidin-4-one], the EC50 is over 300 µM. Turning to `COc1ccc(CN(CC(=O)NCc2ccccc2)C(=O)CCC(=O)Nc2nccs2)cc1`, the EC50 was over 300 µM. The result for `CNc1nc2c(N)ncnc2n1[C@H]1O[C@@H](CO)[C@H](O)[C@@H]1O` [(2S,3S,4R,5S)-2-[6-amino-8-(methylamino)purin-9-yl]-5-(hydroxymethyl)oxolane-3,4-diol] reads over 300 µM.

`CC[n+]1c(/C=C/N(C)c2ccccc2)oc2ccccc21` [SMR000184373] registered an EC50 of over 300 µM.

For the compound `Nc1nonc1-n1nnc(C(=O)NN=Cc2cc(Cl)ccc2O)c1CN1CCCCCC1` [SMR000620619], the EC50 is 8.67 µM. `O=C(/[O+]=N/[CH-]c1ccc(N2CCCCC2)c([N+](=O)[O-])c1)c1c(F)cccc1F` [MLS000326582] registered an EC50 of over 300 µM. In the case of `Cc1cccc(Nc2nc(N)c([N+](=O)[O-])c(NCc3ccco3)n2)c1` [SMR000220105] it was 8.4 µM; in that of `COCCn1c(SCC(=O)Nc2ccc(S(=O)(=O)N(C)C)cc2)nc2ccccc21` [MLS000567111], over 300 µM; in that of `COc1ccc2occ(C(=O)c3ccc(N)cc3)c2c1` [SMR000539215], 14.7 µM. In the case of `COc1ccc(S(=O)(=O)CC(=O)c2cc3cccc(C)c3oc2=O)cc1` [SMR000634140] it was over 300 µM; in that of `Cc1ccc(S(=O)(=O)NNC(=O)c2cccc(O)c2)cc1` [3-hydroxy-N'-(4-methylphenyl)sulfonylbenzohydrazide], over 300 µM. The compound `CCOc1ccccc1C=NNC(=O)c1nnn(-c2nonc2N)c1CN1CCCC1` [1-(4-amino-1,2,5-oxadiazol-3-yl)-N-[(2-ethoxyphenyl)methylideneamino]-5-(pyrrolidin-1-ylmethyl)triazole-4-carboxamide] came in with an EC50 of 1.06 µM. The result for `CN(Cc1c(C(=O)NN=Cc2cccc(F)c2)nnn1-c1nonc1N)c1ccccc1` [MLS001141039] reads 15.6 µM; that for `Cc1ccc(SCc2c(C(=O)NN=Cc3ccoc3)nnn2-c2nonc2N)cc1` [SMR000647588], over 300 µM. In the case of `CCCOc1ccc(-c2c(C(=O)NN=C(C)c3ccco3)nnn2-c2nonc2N)cc1` it was 16.6 µM.

In turn, `O=NCc1ccc(SCc2ccccc2)c([N+](=O)[O-])c1` [SMR000169144] yielded an EC50 of over 300 µM. On to `Cc1ccc2sc(N3CCN(CCNC(=O)c4ccco4)CC3)nc2c1C` [SMR000811862], for which the EC50 is over 300 µM. The result for `COc1ccc(/C=C2/SC(NS(=O)(=O)Cc3ccccc3)=NC2=O)cc1OC` [N-[(5E)-5-[(3,4-dimethoxyphenyl)methylidene]-4-oxo-2-thiazolyl]-1-phenylmethanesulfonamide] reads over 300 µM; that for `COC(=O)c1cccc(Nc2nc(-c3ccncc3)nc3ccccc23)c1` [MLS001163930], over 300 µM; that for `CC(C)C1Cc2c(sc3c2c(=O)n(-c2ccccc2)c2n[nH]c(=S)n32)CO1` (stereo not given) [7-Isopropyl-1-mercapto-4-phenyl-6,9-dihydro-4H,7H-8-oxa-10-thia-2,3,4,10b-tetraaza-cyclopenta[a]fluo ren-5-one], over 300 µM.

Compound `Cc1ccc2c(c1)cc1c(O)nncn12` [MLS000551564] showed an EC50 of over 300 µM. `Nc1nc(Nc2ccccc2)nc(NC2CCCCC2)c1[N+](=O)[O-]` [N4-cyclohexyl-5-nitro-N2-phenylpyrimidine-2,4,6-triamine] came in with an EC50 of 7.68 µM. The result for `O=c1cc(-c2ccccc2Cl)oc2cc(O)cc(O)c12` [2-(2-chlorophenyl)-5,7-dihydroxychromen-4-one] reads 1.67 µM; that for `CCOC(=O)CCNCC1COc2ccccc2O1` (stereo not given) [ethyl 3-(2,3-dihydro-1,4-benzodioxin-3-ylmethylamino)propanoate;hydrochloride], over 300 µM. The result for `COC(=O)c1ccc(NC(C(=O)OC)C(C)C)c([N+](=O)[O-])c1` (stereo not given) [methyl 4-[(1-methoxy-3-methyl-1-oxidanylidene-butan-2-yl)amino]-3-nitro-benzoate] reads over 300 µM; that for `O=C(COc1ccc(Cl)cc1)Nc1ncc([N+](=O)[O-])s1`, 26.3 µM; that for `CN1CCc2c(sc(NC(=O)Cc3ccc(F)cc3)c2C(N)=O)C1` [SMR000641824], over 300 µM. In the case of `CCCN(CCC)CCCNc1ccc2nnc(-c3ccc(F)cc3)n2n1` [N-[3-(4-fluorophenyl)-[1,2,4]triazolo[4,3-b]pyridazin-6-yl]-N',N'-dipropyl-propane-1,3-diamine] it was 11.3 µM.
